The values that follow come from patent US20110039825A1, “LIGANDS OF ALPHA-ADRENOCEPTORS, DOPAMINE, HISTAMINE, IMIDAZOLINE AND SEROTONIN RECEPTORS AND THEIR USE” (Alla Chem, LLC, priority 2007, published 2011).

For one test, the system named is male mice of BALB/c line. Description: Passive Avoidance of mice in the Shuttle Chamber, memory disturbed by Scopolamine. The test is classed as in vivo. As to conditions: Scopolamine 0.3 mg/kg. The procedure:
A shuttle chamber (Ugo Basile, Italy) consisted of two sections was used. […] The sections were connected through a hole which could be overlapped by a vertical door. The floor was made of transverse metal bars on which DC current impulses could be fed. Experiments were carried out in aged male mice of BALB/c line weighing 20-24 grams.
Each group consisted of at least 8 animals. Animal was placed in light section, and latent period of the first entry into dark chamber was registered. Then the vertical door was closed and the animal was punished by 0.6 mA DC current for 3 seconds. After that it was taken back to its homecage. In 22-24 hours the same animal was placed again in light section of the shuttle chamber and latent period of its first entry into dark section, the total time of its stay in light section, and the number of entries into dark section, were registered. Each monitoring lasted for 5 minutes.
Testing was carried out during the day time in isolated laboratory using white noise at level of about 70 decibel above human hearing threshold.
Scopolamine causes the disturbance of training (memory loss) that results in […].

Another test concerns mice. Description: Mice Training in Morris Water Maze (Scopolamine). The format is in vivo. As to conditions: unitary introduction of active ingredient. How it is done: Mice Training in Morris Water Maze. A round pool which was filled with water at 20-22° C. was used. A round ceramic platform of 14 cm height was placed in the pool. Animals's behavior was registered with automated computer videosystem in combination with software package of movement analysis Any-maze (Stoelting Co., US). Before testing mice suitable for training were selected. That was done by placing the platform 1 cm above the water level and putting an animal on the platform for 20 seconds. Then the mouse was sunk into the water on the opposite side of the pool, allowed to find the platform and climbed it within 60 seconds, where it was left for additional 20 seconds. After that the mouse was repeatedly immersed into water on the opposite side of the pool and allowed to look for platform. If it failed in finding the platform within 60 seconds the experimentator helped it to find the platform and climb it. If the mice could not find the platform itself in two consecutive attempts it was excluded from experiment.
During the next two days the platform was placed 0.5 centimeter lower the water level. Every day the mice were given four attempts for finding the platform within 60 seconds. The time interval between the attempts was 20 seconds, during which the mice stayed on the platform. Every day before the first attempt mouse was placed on the platform for 20 seconds. The time needed for finding and climbing the platform was registered. The animals were sunk in water in 3 different places on the side of the pool opposite to platform. On each day of two-day testing 35-40 minutes before the beginning of training the mice were injected intraintestinally with physiological solution, Scopolamine or Scopolamine in combination with investigated compound. At least 8 animals were used in each group.
On the third day the platform was removed and each animal was placed one time in the pool for a period of 60 seconds. The time each mouse spent in the area where the platform had been located during the previous days was registered. This time interval was regarded as a measure of effectiveness of training fulfilled during the previous two days. The testing was carried out during the day time in isolated laboratory using “white noise” at level of about 70 decibel above the human hearing threshold.

The target of the next test is T1, adrenergic receptor α1A (Rattus norvegicus, UniProt P43140).
T1 construct: membrane species from rat submaxillary glands (rat of Wistar breed) are prepared; from tissue; host or cells: rat (Wistar) submaxillary gland membranes
T1 sequence (P43140 1-466): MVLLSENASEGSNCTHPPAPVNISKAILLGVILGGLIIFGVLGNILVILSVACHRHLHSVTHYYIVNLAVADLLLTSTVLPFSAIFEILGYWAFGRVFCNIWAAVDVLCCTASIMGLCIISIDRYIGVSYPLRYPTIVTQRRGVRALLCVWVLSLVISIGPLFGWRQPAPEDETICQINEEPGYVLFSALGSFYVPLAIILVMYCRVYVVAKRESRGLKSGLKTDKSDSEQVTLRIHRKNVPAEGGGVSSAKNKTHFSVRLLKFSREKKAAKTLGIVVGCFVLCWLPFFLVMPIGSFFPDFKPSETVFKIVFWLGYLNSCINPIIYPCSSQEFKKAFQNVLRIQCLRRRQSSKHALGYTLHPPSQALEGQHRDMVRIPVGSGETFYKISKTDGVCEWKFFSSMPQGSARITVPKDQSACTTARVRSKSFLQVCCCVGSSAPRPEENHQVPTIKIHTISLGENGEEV
Description: radioligand binding to adrenergic receptor α1A ([3H] Prazosin). The procedure: Determination of investigated compounds' binding to α1A receptor was carried out according to the method described in [Michel A D, Loury D N and Whiting R l. Identification of a single α1A-adrenoceptor corresponding to the α1A-subtype in rat submaxillary gland. Br J. Pharmacol. 98:883-889, 1989]. […] Prazosin is used as positive control.

For a further test, the target named is T2, adrenergic receptor α1B (Rattus norvegicus, UniProt P15823).
T2 construct: membrane species from rat liver (rat of Wistar breed) are prepared; from tissue; host or cells: rat (Wistar) liver membranes
T2 sequence (P15823 1-515): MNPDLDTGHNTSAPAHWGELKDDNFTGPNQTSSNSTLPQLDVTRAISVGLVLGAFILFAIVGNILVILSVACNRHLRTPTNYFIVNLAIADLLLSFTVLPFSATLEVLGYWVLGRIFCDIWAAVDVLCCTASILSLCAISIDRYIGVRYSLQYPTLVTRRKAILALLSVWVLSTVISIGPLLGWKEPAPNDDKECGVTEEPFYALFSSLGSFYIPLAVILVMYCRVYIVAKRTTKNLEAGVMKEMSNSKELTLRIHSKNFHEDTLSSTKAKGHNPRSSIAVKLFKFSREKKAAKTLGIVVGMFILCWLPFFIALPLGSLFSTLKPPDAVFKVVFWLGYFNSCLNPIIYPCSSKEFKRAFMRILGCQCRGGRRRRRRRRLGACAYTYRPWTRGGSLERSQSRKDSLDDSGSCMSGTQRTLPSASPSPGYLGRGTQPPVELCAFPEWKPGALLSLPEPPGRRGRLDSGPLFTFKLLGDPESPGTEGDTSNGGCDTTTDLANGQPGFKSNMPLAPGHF
Kind of test: radioligand binding to adrenergic receptor α1B ([3H] Prazosin). The text has this:
Species heterogeneity of hepatic α1A-, α1B-, and α1C-subtypes. Biochem Biophys Res Commun. 186:760-7676 1992]. […] Prazosin is used as positive control.

A further test deals with T3, human α1D receptor (Homo sapiens, UniProt P25100).
T3 construct: expressed in transfected cells; host or cells: HEK-293
T3 sequence (P25100 1-572): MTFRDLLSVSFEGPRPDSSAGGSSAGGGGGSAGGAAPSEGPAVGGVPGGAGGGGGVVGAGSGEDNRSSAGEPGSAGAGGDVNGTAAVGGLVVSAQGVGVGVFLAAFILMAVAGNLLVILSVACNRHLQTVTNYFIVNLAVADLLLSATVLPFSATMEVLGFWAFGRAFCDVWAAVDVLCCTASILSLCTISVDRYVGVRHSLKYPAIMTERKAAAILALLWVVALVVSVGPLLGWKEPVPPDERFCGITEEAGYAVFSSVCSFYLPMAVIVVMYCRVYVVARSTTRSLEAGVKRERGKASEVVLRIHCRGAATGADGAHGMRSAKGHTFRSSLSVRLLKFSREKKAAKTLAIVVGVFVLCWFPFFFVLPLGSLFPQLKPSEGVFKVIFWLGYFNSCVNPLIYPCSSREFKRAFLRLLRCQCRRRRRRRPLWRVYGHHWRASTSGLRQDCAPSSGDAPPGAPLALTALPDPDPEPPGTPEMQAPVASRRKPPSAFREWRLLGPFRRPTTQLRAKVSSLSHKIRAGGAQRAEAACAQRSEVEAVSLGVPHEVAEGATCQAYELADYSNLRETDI
Kind of test: radioligand binding to adrenergic receptor α1D ([3H] Prazosin). An excerpt: 6-C. […] For this purpose sDNA of human α1D receptor is expressed in HEK-293 cells, as it was described in [T L Theroux, T A Esbenshade, R D Peavy and K P Minneman. Coupling efficiencies of human alpha 1-adrenergic receptor subtypes: titration of receptor density and responsiveness with inducible and repressible expression vectors. Mol. Pharmacol.; 50: 1376-1387, 1996]. […] Prazosin is used as positive control.

The target of a further test is T4, human α2A receptor (Homo sapiens, UniProt P08913).
T4 construct: expressed in transfected cells; host or cells: Sf9
T4 sequence (P08913 1-465): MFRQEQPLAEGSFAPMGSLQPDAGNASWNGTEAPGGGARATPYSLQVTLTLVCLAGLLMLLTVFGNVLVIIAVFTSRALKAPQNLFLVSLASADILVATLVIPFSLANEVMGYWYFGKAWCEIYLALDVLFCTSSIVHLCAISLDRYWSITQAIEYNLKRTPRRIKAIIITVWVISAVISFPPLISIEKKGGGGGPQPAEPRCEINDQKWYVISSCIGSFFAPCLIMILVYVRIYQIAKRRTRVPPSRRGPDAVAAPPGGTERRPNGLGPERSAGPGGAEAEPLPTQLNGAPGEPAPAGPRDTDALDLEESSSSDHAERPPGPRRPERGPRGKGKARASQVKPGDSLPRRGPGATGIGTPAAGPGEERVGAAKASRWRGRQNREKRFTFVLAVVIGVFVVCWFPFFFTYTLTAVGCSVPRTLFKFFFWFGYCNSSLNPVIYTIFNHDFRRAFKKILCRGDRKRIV
Description: radioligand binding to adrenergic receptor α2A ([3H] MK-912). The text has this: J Pharmacol ExpTher. […] Yohimbine is used as positive control.

The next test has as its target T5, human D1 receptor (Homo sapiens, UniProt P21728).
T5 construct: expressed in transfected cells; host or cells: CHO
Kind of test: radioligand binding to dopamine receptor D1 ([3H] SCH-23390). An excerpt:
For this purpose sDNA of human D1 receptor is expressed in CHO cells, as it was described in [Dearry A, Gingrich J A, Falardeau P, Fremeau R T Jr, Bates M D and Caron M G. Molecular cloning and expression of the gene for a human D1 dopamine receptor. Nature. […] Nature.

For a further test, the target named is T6, human D2S receptor (Homo sapiens, UniProt P14416).
T6 construct: expressed in transfected cells; host or cells: CHO
Description: radioligand binding to dopamine receptor D2S ([3H] Spiperone). The text has this: 7-C. […] For this purpose sDNA of human D2S receptor is expressed in CHO cells, as described in [Hayes G, Biden T J, Selbie L A and Shine J, Structural subtypes of the dopamine D2 receptor are functionally distinct. […] Mol. Endocrinol. […] Mol. Endocrinol. […] Spiperone is used as positive control.

The next test deals with T7, human H1 receptor (Homo sapiens, UniProt P35367).
T7 construct: expressed in transfected cells; host or cells: CHO-K1
Kind of test: radioligand binding to histamine receptor H1 ([3H] Pyrilamine). The text has this:
Biochem Biophys Res Comm. 197(3): 1601-1608, 1993]. […] Biochem Biophys Res Comm. 197(3): 1601-1608, 1993].
Pyrilamine is used as positive control.

A further test relates to imidazoline receptor I2. Kind of test: radioligand binding to imidazoline receptor I2 ([3H] Idazoxan). On the set-up: species or system rat. The settings on record: 10 μM ligand. How it is done:
Determination of investigated compounds' binding to imidazoline I2 receptor is carried out according to the method described in [Brown C M, MacKinnon A C, McGrath J C, Spedding M and Kilpatrick A T, a2-Adrenoceptor subtypes and imidazoline-like binding in the rat brain. Br J. Pharmacol. 99:803-809, 1990]. […] Idazoxan is used as positive control.

The structures appear in SMILES notation.

T7 sequence (P35367 whole entry): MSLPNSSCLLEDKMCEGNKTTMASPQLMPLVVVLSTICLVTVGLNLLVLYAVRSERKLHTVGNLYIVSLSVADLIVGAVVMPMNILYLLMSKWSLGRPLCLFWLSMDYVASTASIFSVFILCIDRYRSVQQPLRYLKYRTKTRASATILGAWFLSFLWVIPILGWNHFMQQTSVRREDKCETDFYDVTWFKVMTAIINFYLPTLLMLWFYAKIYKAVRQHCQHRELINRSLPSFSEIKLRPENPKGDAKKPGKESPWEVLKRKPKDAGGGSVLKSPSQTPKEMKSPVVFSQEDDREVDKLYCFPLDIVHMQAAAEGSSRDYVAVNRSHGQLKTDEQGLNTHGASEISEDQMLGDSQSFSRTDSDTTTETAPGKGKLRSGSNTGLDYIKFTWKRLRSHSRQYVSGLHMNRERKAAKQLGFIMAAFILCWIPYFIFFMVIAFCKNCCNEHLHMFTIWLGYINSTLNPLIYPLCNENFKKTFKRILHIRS
T6 sequence (P14416 1-414 isoform P14416-2): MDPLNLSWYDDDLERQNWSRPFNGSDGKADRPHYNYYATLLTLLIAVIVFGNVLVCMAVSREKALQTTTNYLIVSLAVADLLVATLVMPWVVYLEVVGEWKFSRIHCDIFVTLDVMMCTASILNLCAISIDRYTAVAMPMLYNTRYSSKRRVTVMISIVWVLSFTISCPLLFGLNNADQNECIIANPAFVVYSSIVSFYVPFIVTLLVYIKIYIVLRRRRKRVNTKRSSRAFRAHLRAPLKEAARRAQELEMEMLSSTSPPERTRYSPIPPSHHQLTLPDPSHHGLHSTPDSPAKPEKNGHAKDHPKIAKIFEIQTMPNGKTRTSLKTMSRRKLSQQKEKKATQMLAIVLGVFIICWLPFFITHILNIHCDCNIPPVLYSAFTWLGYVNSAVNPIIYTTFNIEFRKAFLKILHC
T5 sequence (P21728 whole entry): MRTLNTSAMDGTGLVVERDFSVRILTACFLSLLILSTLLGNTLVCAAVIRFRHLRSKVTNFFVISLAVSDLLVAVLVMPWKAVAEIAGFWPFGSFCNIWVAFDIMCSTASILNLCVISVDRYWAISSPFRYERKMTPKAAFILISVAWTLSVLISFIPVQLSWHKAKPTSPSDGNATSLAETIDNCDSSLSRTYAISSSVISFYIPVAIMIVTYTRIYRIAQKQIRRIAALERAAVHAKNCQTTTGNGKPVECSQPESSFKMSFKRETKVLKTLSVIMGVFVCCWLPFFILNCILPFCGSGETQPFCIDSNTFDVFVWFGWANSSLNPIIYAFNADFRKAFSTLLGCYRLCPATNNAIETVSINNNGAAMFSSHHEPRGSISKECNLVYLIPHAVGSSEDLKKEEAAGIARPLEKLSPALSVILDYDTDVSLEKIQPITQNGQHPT

Consider `Cc1ccc2c(c1)c1c(n2CCc2ccccc2)CCN(C)C1` [1.1.2(1-2), 2,8-dimethyl-5-phenethyl-1,2,3,4-tetrahydro-1H-pyrido[4,3-b]indole], for which the “enhancement of memory disturbed by Scopolamine (passive avoidance)” value with male mice of BALB/c line was “improve memory”. Besides, the “memory disorders caused by Scopolamine in Morris water maze” value in the test on mice was “decreasing memory disorders coused by Scopalomine”.
Consider `Cc1ccc2c(c1)c1c(n2CCc2ccc(C)nc2)CCN(C)C1.Cl.Cl` [1.1.2(4-2)•2HCl], for which the IC50 at adrenergic receptor α1A was found to be 136 nM; on adrenergic receptor α1B, 87 nM; on human α1D receptor, 239 nM; at human α2A receptor, 286 nM; at human D1 receptor it was 4410 nM; on human D2S receptor, 1750 nM. Besides, at human H1 receptor, the IC50 came to 4.28 nM. For the same compound, the Ki on adrenergic receptor α1A came to 55 nM; at adrenergic receptor α1B, 48 nM; on human α1D receptor it was 118 nM; at human α2A receptor, 107 nM; on human H1 receptor it was 1.6 nM. For the same compound, on adrenergic receptor α1A, the “nH α1A” value is reported as 1.12. For the same compound, the “nH α1B” value on adrenergic receptor α1B came to 1.54. In addition, on human α2A receptor, the “nH α2A” value is 0.828. In addition, the “nH D2S” value at human D2S receptor came out at 0.724. For the same compound, on human H1 receptor, the “nH H1” value is 1.01. For the same compound, the “imidazoline I2 receptor % inhibition” value with imidazoline receptor I2 was found to be 98%.
Consider `Cc1ccc2c(c1)c1c(n2CCc2ccncc2)CCCN(C)C1.Cl.Cl` [1.2.2(5-3)•2HCl], for which the “memory disorders caused by Scopolamine in Morris water maze” value in the test with mice was “decreasing memory disorders coused by Scopalomine”.

A word on the IC50: it is the concentration at which inhibition is half-maximal. A low value points to higher potency. Broadly, the Ki is the dissociation constant of the complex between target and ligand, obtained from inhibition or displacement. Read a high Ki as a looser hold on the target.
